For experiment [1], the system named is IκBζ. The experiment can be described thus: LPS-induced Ikb-ζ protein induction in BMDMs (western blot). It counts as cell-based, mouse. To be noted: for LPS-induced Ikb-ζ induction, protein level: BMDMs treated with compound 12 h, then LPS 100 ng/ml; for effect of added agent on Ikb-ζ induction in DI-treated cells: DI 12 h plus agent. On the procedure: (§1) BMDM were prepared from 6- to 12-week-old mice as described 1 and cultured in RMPI-1640 medium supplemented with 10% fetal bovine serum (FBS), 2 mM L-glutamine, and 100 U/mL penicillin-streptomycin and mouse recombinant M-CSF ([…], Peprotech). For experiments, cells were seeded at concentration 10^6 cells/mL in tissue culture plates of various formats. The cells were treated with DI (250 μM (unless stated otherwise), cat #592498, Sigma), DMF (50 μM (unless stated otherwise), cat #242926, Sigma), 3-(ethoxycarbonyl)but-3-enoic acid (3MI, 5 μM, Aris Pharmaceuticals Inc.), 4-ethoxy-2-methylene-4-oxobutanoic acid (MI, Aris Pharmaceuticals Inc.) for 12 h and activated with lipopolysaccharide (LPS; 100 ng/mL; E. coli 0111:B4, Sigma) for 1 h or as indicated. In some experiments cells were stimulated with combination of LPS (20 ng/mL) and IFN-γ (50 ng/mL; Peprotech). In some experiments cells were treated with α-tocopherol (AT, 10 μM; Sigma), MitoTEMPO (MT, 500 μM; Sigma), N-acetylcysteine (NAC, 1 mM, Sigma), ethylester of GSH (EtGSH; 1 mM, Santa Cruz) or buthionene sulfoximine (BSO, 500 μM, Sigma) alone or in combination with DI for 12 h. In some experiments BMDMs were treated with DI for 12 h and bafilomycin A (BafA, 100 nM, Sigma) or MG132 (10 μM, Selleckchem) were added 30 min before subsequent LPS stimulation.
Cells were lysed in RIPA Lysis Buffer System (Santa Cruz) and heat-denatured at 95° C. for 5 min in reducing sample buffer (BioRad). Proteins were separated on 4%-20% polyacrylamide gradient gels (BioRad) and transferred onto 0.45 μm pore size PVDF membranes (Millipore). Non-specific binding was blocked with 5% skim milk (or 5% BSA when phospho-proteins were analyzed), and membranes were probed with primary antibodies specific to Nrf2 (#12721), HO-1 (#70081), IκBζ (mouse specific, #93726), IκBζ(#9244), ATF3 (#D2Y5W), IRAK1 (#4504; sensitivity of IRAK1 detection diminishes upon IRAK1 K63 ubiquitination), phospho-IKK (Ser176/180, #2697), p62/SQSTM1 (#5114), phospho-eIF2α (Ser51, #9721), eIF2α (#5324) from Cell Signaling; GAPDH (sc-25778), IκBα (sc-1643), ATF3 (sc-188), SDHA (sc-166909) from Santa Cruz; NQO1 (ab28947) from Abeam, followed by incubation with anti-rabbit-HRP (1:10,000; sc-2030) or anti-mouse-HRP (1:10,000; sc-2031) from Santa Cruz and Clarity western ECL substrate (Bio-Rad). Membranes were exposed to X-Ray films (Research Products International Corp.) and developed using SRX-101A film processor (Konica Minolta). GAPDH run on the same blot was used as loading control. After scanning of original films image brightness of some blots was adjusted and bands were cropped using ImageJ. Densitometry was performed using ImageJ.

The test system of the next experiment is Nrf2. Put plainly: Nrf2 response in BMDMs (western blot, target genes). The conditions noted are these: 12 h treatment. It counts as cell-based, mouse. On the procedure: as §1, with “In some experiments BMDMs were treated with DI for 12 h and bafilomycin A (BafA, 100 nM, Sigma) or MG132 (10 μM, Selleckchem) were added 30 min before subsequent LPS stimulation.” left out
(§2) Cells were lysed in RIPA Lysis Buffer System (Santa Cruz) and heat-denatured at 95° C. for 5 min in reducing sample buffer (BioRad). […] Non-specific binding was blocked with 5% skim milk (or 5% BSA when phospho-proteins were analyzed), and membranes were probed with primary antibodies specific to Nrf2 (#12721), HO-1 (#70081), IκBζ (mouse specific, #93726), IκBζ(#9244), ATF3 (#D2Y5W), IRAK1 (#4504; sensitivity of IRAK1 detection diminishes upon IRAK1 K63 ubiquitination), phospho-IKK (Ser176/180, #2697), p62/SQSTM1 (#5114), phospho-eIF2α (Ser51, #9721), eIF2α (#5324) from Cell Signaling; GAPDH (sc-25778), IκBα (sc-1643), ATF3 (sc-188), SDHA (sc-166909) from Santa Cruz; NQO1 (ab28947) from Abeam, followed by incubation with anti-rabbit-HRP (1:10,000; sc-2030) or anti-mouse-HRP (1:10,000; sc-2031) from Santa Cruz and Clarity western ECL substrate (Bio-Rad). […]
For orientation: In western blotting, separated proteins are transferred to a membrane and probed.

Another experiment has as its system IL6, IL12, IL1b, TNFα. The experiment can be described thus: Cytokine production in LPS-stimulated BMDMs (ELISA). It counts as cell-based, mouse. The conditions noted are these: then LPS; for LPS-induced cytokine production: BMDMs pretreated 12 h; for effect of co-treatment on DI-mediated inhibition of cytokine (IL6) production: agent added simultaneously with DI. On the procedure: as §1
Cytokines in cell supernatants were analyzed using DuoSet® ELISA kits according to manufacturer protocol (R&D Systems). The supernatants from BMDMs were diluted 1:4, from human blood monocytes 1:3.

The next experiment relates to STAT3. Put plainly: STAT3 activation in LPS-stimulated BMDMs (western blot). It counts as cell-based, mouse. To be noted: BMDMs, 12 h pretreatment. On the procedure: as §1, with “In some experiments BMDMs were treated with DI for 12 h and bafilomycin A (BafA, 100 nM, Sigma) or MG132 (10 μM, Selleckchem) were added 30 min before subsequent LPS stimulation.” left out
as §2

The test system of experiment [2] is IκBζ. The experiment can be described thus: Ikb-ζ protein in LPS-stimulated human monocytes (western blot). The conditions noted are these: human blood monocytes, DI plus agent, LPS 1 h. It counts as cell-based. On the procedure: Cells were lysed in RIPA Lysis Buffer System (Santa Cruz) and heat-denatured at 95° C. for 5 min in reducing sample buffer (BioRad). Proteins were separated on 4%-20% polyacrylamide gradient gels (BioRad) and transferred onto 0.45 μm pore size PVDF membranes (Millipore). Non-specific binding was blocked with 5% skim milk (or 5% BSA when phospho-proteins were analyzed), and membranes were probed with primary antibodies specific to Nrf2 (#12721), HO-1 (#70081), IκBζ (mouse specific, #93726), IκBζ(#9244), ATF3 (#D2Y5W), IRAK1 (#4504; sensitivity of IRAK1 detection diminishes upon IRAK1 K63 ubiquitination), phospho-IKK (Ser176/180, #2697), p62/SQSTM1 (#5114), phospho-eIF2α (Ser51, #9721), eIF2α (#5324) from Cell Signaling; GAPDH (sc-25778), IκBα (sc-1643), ATF3 (sc-188), SDHA (sc-166909) from Santa Cruz; NQO1 (ab28947) from Abeam, followed by incubation with anti-rabbit-HRP (1:10,000; sc-2030) or anti-mouse-HRP (1:10,000; sc-2031) from Santa Cruz and Clarity western ECL substrate (Bio-Rad). […]
Blood from healthy donors was acquired from LRS chambers supplied by the Mississippi Valley Regional Blood Center. […] After extensive washes to allow removal of non-adherent cells, monocytes (>95% purity) were harvested, counted and 5×10^5 cells were plated per well in 24-well plates. […]

The test system of a further experiment is ATF3. The experiment can be described thus: ATF3 protein expression (western blot). To be noted: mouse macrophages and human monocytes, DI plus agent. It counts as cell-based, mouse. As for the experimental part: as §1, with “In some experiments BMDMs were treated with DI for 12 h and bafilomycin A (BafA, 100 nM, Sigma) or MG132 (10 μM, Selleckchem) were added 30 min before subsequent LPS stimulation.” left out
as §2

The next experiment has as its system HBL1 cells line (ABC). Put plainly: DLBCL cell viability, resazurin assay, ABC subtype. It counts as cell-based. To be noted: HBL1, 4 days, refreshed daily; DI 125-250 μM.
The test system of experiment [3] is LY1 and LY7 (GCB) cell lines. The experiment can be described thus: DLBCL cell viability, resazurin assay, GCB subtype. The conditions noted are these: LY1 and LY7, 4 days, refreshed daily; DI 125-250 μM. It counts as cell-based.

Entries after “also recorded” stand apart in the source; their conditions may differ. Where a name gives a salt, the structure may show the parent alone. Where a SMILES comes first, the peptide text is derived from it. The star is where a group is joined. Cbz = O=C(OCc1ccccc1)*

`C=C(CC(=O)O)C(=O)OCC` [3MI, 3-(ethoxycarbonyl)but-3-enoic acid]: the “LPS-induced Ikb-ζ induction, protein level” value (from here on “LPS-induced Ikb-ζ induction”) in the experiment with IκBζ [1] was “inhibited IκBζ induction”.
Turning to `CCCCS(=N)(=O)CCC(N)C(=O)O` (stereo not shown) [BSO, buthionine sulfoximine, reference compound], the “Nrf2 response (Nrf2 protein, target genes)” value in the experiment on Nrf2 was “nor trigger Nrf2 response”. Further, the LPS-induced cytokine production entry with IL6, IL12, IL1b, TNFα was “does not inhibit cytokine production”.
`COC(=O)CC(=O)OC` [DM, Dimethyl malonate, reference compound]: the “LPS-induced Ikb-ζ induction” value in the experiment with IκBζ [1] was “does not affect Ikbζ expression”.
As for `COC(=O)/C=C/C(=O)OC` [DMF, Dimethyl fumarate, reference compound], the “Nrf2 response (Nrf2 protein, target genes)” value with Nrf2 is given as “triggered Nrf2 response”. For the same molecule, the LPS-induced cytokine production result in the experiment with IL6, IL12, IL1b, TNFα is “inhibit IL6 but not TNF production; also recorded: selective inhibition of IL-6”. Further, the “LPS-induced Ikb-ζ induction” value in the experiment with IκBζ [1] is given as “strongly inhibited Ikb-ζ induction; also recorded: inhibited IκBζ induction”. Further, in the experiment on STAT3, the “STAT3 activation (Y705 phosphorylation)” value is recorded as “effective to inhibit STAT3 activation”.
Consider `CCOC(=O)CNC(=O)[C@H](CS)NC(=O)CC[C@H](N)C(=O)O` [EtGSH, ethylester of GSH, reference compound], for which the “effect of co-treatment on IκBζ induction in DI-treated cells” value in the experiment on IκBζ [2] is listed as “restored LPS-mediated IκBζ induction”. Moreover, in the experiment with ATF3, the “DI-mediated ATF3 expression upon co-treatment” value is on record as “efficiently decreased”. The “effect of co-treatment on DI-mediated inhibition of cytokine (IL6) production” value in the experiment with IL6, IL12, IL1b, TNFα is recorded as “reversed the effect of DI”. Further, the “effect of added agent on Ikb-ζ induction in DI-treated cells” value (from here on “effect of added agent on Ikb-ζ induction”) with IκBζ [1] (BMDMs, LPS) was “restored LPS-mediated IκBζ induction”.
Consider `CC(C)C[C@@H](C=O)NC(=O)[C@H](CC(C)C)NC(=O)[C@H](CC(C)C)NC(=O)OCc1ccccc1` [MG132, reference compound] (Cbz-Leu-Leu-Leu-aldehyde), for which, in the experiment with IκBζ [1] (BMDMs, LPS), the “effect of added agent on Ikb-ζ induction” value is listed as “did not affect Ikb-ζ levels; also recorded: neither rescued IκBζ induction”.
With `C=C(CC(=O)OCC)C(=O)O` [MI, 4-ethoxy-2-methylene-4-oxobutanoic acid], the “LPS-induced Ikb-ζ induction” value with IκBζ [1] is “did not”. Besides, the “effect on IκBζ/IL-6 in combination with BSO” value in the experiment with IκBζ [1] (BMDMs, compound plus BSO 500 μM, LPS) is “unlocked the effect”.
As to `CN1CCCC(CN2c3ccccc3Sc3ccccc32)C1` (stereo not shown) [Mepazine, mepazine, reference compound], the “growth / toxicity, ABC DLBCL” value in the experiment on HBL1 cells line (ABC) is “inhibited growth of HBL1”. For the same molecule, the “growth / toxicity, GCB DLBCL” value in experiment [3] is “not LY1 and LY7”.
Take `CC(=O)N[C@@H](CS)C(=O)O` [NAC, N-acetylcysteine]: in the experiment with ATF3, the “DI-mediated ATF3 expression upon co-treatment” value was “efficiently decreased”. Besides, the “effect of co-treatment on DI-mediated inhibition of cytokine (IL6) production” value in the experiment with IL6, IL12, IL1b, TNFα is given as “completely abrogated effect of DI when added simultaneously with DI”; in the experiment with IL6, IL12, IL1b, TNFα (listed as N-acetylcysteine) it was “reversed the effect of DI”. Further, in the experiment with IκBζ [1] (BMDMs, LPS), the “effect of added agent on Ikb-ζ induction” value is “restored Ikb-ζ production; also recorded: restored LPS-mediated IκBζ induction”.
On to `CO/C1=C\C(C)=C\[C@@H](C)[C@@H](O)[C@@H](C)C/C(C)=C/C=C/[C@H](OC)[C@@H]([C@@H](C)[C@@H](O)[C@H](C)[C@@]2(O)C[C@@H](O)[C@H](C)[C@@H](C(C)C)O2)OC1=O` [bafilomycin A, reference compound], for which the “effect of added agent on Ikb-ζ induction” value in the experiment with IκBζ [1] (BMDMs, LPS) is “neither rescued IκBζ induction”.

The values are drawn from patent US20200375929A1, “METHODS AND COMPOSITIONS FOR THE TREATMENT OF DISEASES ASSOCIATED WITH CANCER, INFLAMMATION, OR IMMUNE RESPONSE” (Washington University, priority 2017, published 2020).
